Reference: ChEMBL document CHEMBL1140714, “In search of novel agents for therapy of tropical diseases and human immunodeficiency virus” (J Med Chem, 2008)
Calls of active or inactive are those of the source. The calls are words filed in the database; no cut-off is given here.

Legend:
Plasmodium falciparum [1] = experiment: Antiplasmodial activity against chloroquine-sensitive Plasmodium falciparum; format: functional, organism-based
Staphylococcus aureus = experiment: Antibacterial activity against Staphylococcus aureus assessed as inhibition of biofilm formation; format: functional, organism-based
Leishmania major = experiment: Antileishmanial activity against Leishmania major MHOM/IL/81/FE/BNI infected in BALB/c mouse; format: functional
[2] = tested on: Trypanosoma brucei brucei; experiment: Antitrypanosomal activity against Trypanosoma brucei brucei TC221; format: functional; settings: read-out: ED50 (the source's name)
[3] = Cytotoxicity against mouse J774.1 cells after 48 hrs; format: cell-based; settings: read-out: ED50
Plasmodium falciparum [4] = experiment: Antiplasmodial activity against Plasmodium falciparum NF54 after 24 hrs; format: functional, organism-based; settings: NF54, 24 h
Plasmodium falciparum [5] = experiment: Antiplasmodial activity against Plasmodium falciparum NF54 after 72 hrs; format: functional, organism-based; settings: NF54, 72 h
[6] = tested on: Human immunodeficiency virus 1; experiment: Antiviral activity against HIV1 NL4/3 replication in PM1 cells; format: functional
Plasmodium falciparum [7] = experiment: Antiplasmodial activity against Plasmodium falciparum NF54 infected mice (Mus musculus) after 72 hrs; format: functional, organism-based; settings: NF54, 72 h
[8] = tested on: Human immunodeficiency virus 1; experiment: Antiviral activity against HIV1 BaL replication in PM1 cells; format: functional
Plasmodium falciparum [9] = experiment: Antiplasmodial activity against Plasmodium falciparum NF54 after 48 hrs; format: functional, organism-based; settings: NF54, 48 h
Plasmodium falciparum [10] = experiment: Antiplasmodial activity against Plasmodium falciparum NF54 after 36 hrs; format: functional, organism-based; settings: NF54, 36 h
[11] = tested on: Human immunodeficiency virus 1; experiment: Antiviral activity against HIV1 BaL replication in PM1 cells at 5 uM; format: functional, organism-based
Mus musculus [12] = experiment: Increase in survival of chloroquine-sensitive Plasmodium falciparum NF54 infected perorally dosed C57BL/6 mice (Mus musculus); format: functional, organism-based
[13] = tested on: Human immunodeficiency virus 1; experiment: Antiviral activity against HIV1 NL4/3 replication in PM1 cells at 6 uM; format: functional, organism-based
Plasmodium falciparum [14] = experiment: Inhibition of parasitemia in chloroquine-sensitive Plasmodium falciparum NF54 infected C57BL/6 mice (Mus musculus) after 4 days; format: functional; design: scale not given: the % may be the effect or the level left
Plasmodium falciparum [15] = experiment: Antiplasmodial activity against chloroquine-sensitive Plasmodium falciparum NF54; format: functional, organism-based
Plasmodium falciparum [16] = experiment: Inhibition of parasitemia in chloroquine-sensitive Plasmodium falciparum NF54 infected C57BL/6 mice (Mus musculus) after 1 day at 40 uM; format: functional; design: scale not given: the % may be the effect or the level left
Plasmodium falciparum [17] = experiment: Inhibition of parasitemia in chloroquine-sensitive Plasmodium falciparum NF54 infected C57BL/6 mice (Mus musculus) after 2 days at 20 uM; format: functional; design: scale not given: the % may be the effect or the level left
Mus musculus [18] = experiment: Increase in survival of chloroquine-sensitive Plasmodium falciparum NF54 infected intravenously dosed C57BL/6 mice (Mus musculus); format: functional, organism-based
Plasmodium falciparum [19] = experiment: Antiplasmodial activity against chloroquine-resistant Plasmodium falciparum; format: functional, organism-based
[20] = Plasmodium falciparum, read-out: IC50

Compound	EC50 [2] [µM]	IC50 (Plasmodium falciparum [1])	Activity (Staphylococcus aureus)	ED50 (Leishmania major) [µM]	CC50 at 48 h [3] [µM]	also measured
Clc1cccc(Cl)c1CON=C1CCN(CCCc2ccccc2)CC1	> 100	–	inactive	>100	> 100	IC50 (Plasmodium falciparum [1]; [20]): 31 µM
C=CCN1[C@@H](c2ccccn2)C(C(=O)OC)=C(O)C[C@H]1c1ccccn1	–	–	inactive	50	35	IC50 (Plasmodium falciparum [4]): 1.4 µM
C[C@@H]1CC2(C[C@H](C)N1)C(=O)N(Cc1ccc([N+](=O)[O-])cc1)C(=O)N2Cc1ccccc1 (stereo partly drawn)	3.74	–	inactive	>100	42.4	IC50 (Plasmodium falciparum [5]): 14.6 µM
COC(=O)C1C(=O)C(C(=O)OC)[C@H](c2ccc([N+](=O)[O-])cc2)N(Cc2ccccc2)[C@@H]1c1ccc([N+](=O)[O-])cc1 (stereo partly drawn)	3.01	–	inactive	>100	18.4	Inhibition [6]: 20%; IC50 (Plasmodium falciparum [7]): 11.9 µM; Inhibition [8]: 20%
COC(=O)c1c(-c2ccccn2)n(Cc2ccc(C)cc2)c(-c2ccccn2)cc1=O	–	–	inactive	–	–	IC50 (Plasmodium falciparum [9]): 40 µM; IC50 (Plasmodium falciparum [4]): 9.1 µM
CC[C@@H]1CC2(C[C@@H](CC)N1)C(=O)NC(=O)N2Cc1ccccc1 (stereo partly drawn)	> 100	Not Active	inactive	>100	> 100	–
C=CCN1[C@H](c2ccc([N+](=O)[O-])cc2)C(C(=O)OCC)C(=O)C(C(=O)OCC)[C@@H]1c1ccc([N+](=O)[O-])cc1 (stereo partly drawn)	3.06	–	inactive	–	> 100	Activity [11]: Active; IC50 (Plasmodium falciparum [7]): 11 µM; Activity (Mus musculus [12]): Active; Activity [13]: Active; Activity (Plasmodium falciparum [14]): 0%
COC(=O)C1=C(O)C[C@H](c2ccccn2)N(Cc2ccc(Cl)cc2)[C@@H]1c1ccccn1	0.32	–	inactive	87.93	32.8	IC50 (Plasmodium falciparum [9]): 1.7 µM; IC50 (Plasmodium falciparum [5]): 12 µM
COC(=O)C1C(=O)C(C(=O)OC)[C@H](c2ccccn2)N(Cc2ccccn2)[C@@H]1c1ccccn1 (stereo partly drawn)	4.62	Not Active	inactive	>100	29.9	–
CC[C@@H]1CC2(C[C@H](CC)N1)C(=O)N(CCCc1ccccc1)C(=O)N2c1ccccc1 (stereo partly drawn)	13.4	Not Active	inactive	>100	> 100	–
Cl.Clc1cccc(Cl)c1CO/N=C/C1CCN(CCCc2ccccc2)CC1	–	–	inactive	30.72	28.4	IC50 (Plasmodium falciparum [4]): 11.8 µM; IC50 (Plasmodium falciparum [5]): 8.29 µM
Cc1cc(C2CCCCC2)n(O)c(=O)c1 [CICLOPIROX OLAMINE]	–	–	–	–	–	IC50 (Plasmodium falciparum [15]): 8.2 µM
CC[C@@H]1CC2(C[C@H](CC)N1Cc1ccccc1)C(=O)NC(=O)N2c1ccccc1 (stereo partly drawn)	31	Not Active	inactive	>100	> 100	–
COC(=O)C1C(=O)C(C(=O)OC)[C@H](c2ccccn2)N(Cc2ccccc2)[C@@H]1c1ccccn1 (stereo partly drawn)	–	–	inactive	55.99	34	Activity (Plasmodium falciparum [16]): 0%; Activity (Plasmodium falciparum [17]): 0%; IC50 (Plasmodium falciparum [4]): 10.2 µM; Activity (Mus musculus [18]): Active; IC50 (Plasmodium falciparum [5]): 10.9 µM
COC(=O)C1=C(c2ccccn2)N(Cc2ccc(Cl)cc2)C(c2ccccn2)CC1=O (stereo not drawn)	–	–	inactive	–	–	IC50 (Plasmodium falciparum [4]): 18 µM
NC(Cn1ccc(=O)c(O)c1)C(=O)O (stereo not drawn) [MIMOSINE]	> 100	–	–	–	–	IC50 (Plasmodium falciparum [1]; [20]): 32 µM; IC50 (Plasmodium falciparum [19]): 39 µM
N[C@@H](Cn1ccc(=O)c(O)c1)C(=O)O [L-MIMOSINE]	–	–	–	–	–	IC50 (Plasmodium falciparum [1]; [20]): 32 µM; IC50 (Plasmodium falciparum [19]): 39 µM
CCC[C@@H]1CC2(C[C@H](CCC)N1)C(=O)NC(=O)N2c1ccccc1 (stereo partly drawn)	> 100	Not Active	inactive	>100	36	–
CC[C@@H]1CC2(C[C@H](CC)N1)C(=O)N(CCc1ccccc1)C(=O)N2c1ccccc1 (stereo partly drawn)	18.1	Not Active	inactive	41.1	32.3	–

More lines, main results first:

EC50 [2] [µM]	IC50 (Plasmodium falciparum [1])	Compound	Activity (Staphylococcus aureus)	ED50 (Leishmania major) [µM]	CC50 at 48 h [3] [µM]	also measured
> 100	–	COC(=O)C1=C(c2ccccn2)N(Cc2ccccc2)C(c2ccccn2)CC1=O (stereo not drawn)	inactive	–	–	IC50 (Plasmodium falciparum [4]): 4.7 µM
2.72	–	CCOC(=O)C1C(=O)C(C(=O)OCC)[C@H](c2ccc([N+](=O)[O-])cc2)N(Cc2ccccc2)[C@@H]1c1ccc([N+](=O)[O-])cc1 (stereo partly drawn)	inactive	–	> 100	Inhibition [6]: 20%; IC50 (Plasmodium falciparum [7]): 10.1 µM; Inhibition [8]: 20%
> 100	Not Active	C[C@@H]1CC2(C[C@H](C)N1)C(=O)N(CCO)C(=O)N2Cc1ccccc1 (stereo partly drawn)	inactive	>100	> 100	–
> 100	–	COC(=O)c1c(-c2ccccn2)n(Cc2ccc(Cl)cc2)c(-c2ccccn2)cc1=O	inactive	>100	> 100	IC50 (Plasmodium falciparum [10]): 9.4 µM
2.41	Not Active	C=CCN1[C@H](c2ccc([N+](=O)[O-])cc2)C(C(=O)OC)C(=O)C(C(=O)OC)[C@@H]1c1ccc([N+](=O)[O-])cc1 (stereo partly drawn)	inactive	>100	50.3	–
18.3	Not Active	COC(=O)C1C(=O)C(C(=O)OC)[C@H](c2ccccn2)N(CCCO)[C@@H]1c1ccccn1 (stereo partly drawn)	inactive	>100	32	–
> 100	Not Active	C[C@@H]1CC2(C[C@H](C)N1)C(=O)NC(=O)N2c1ccccc1 (stereo partly drawn)	inactive	>100	> 100	–
19.3	Not Active	COC(=O)C1C(=O)C(C(=O)OC)[C@H](c2ccccn2)N(CCCC(=O)O)[C@@H]1c1ccccn1 (stereo partly drawn)	inactive	>100	46	–
25.4	Not Active	CC[C@@H]1CC2(C[C@H](CC)N1Cc1ccccc1)C(=O)N(Cc1ccc([N+](=O)[O-])cc1)C(=O)N2c1ccccc1 (stereo partly drawn)	inactive	>100	> 100	–
